Experimental data published in patent publication US8710198B2, “Caprazene as a novel compound and derivatives thereof, and caprazol as a novel compound and derivatives thereof” (Meiji Seika Pharma Co., Ltd., priority 2003, dated 2014).

Assays:
Assay type in all cases: cell-based
Micrococcus luteus FDA16 = test: Minimum growth inhibitory concentration on agar culture medium by serial dilution method (Japanese Society of Chemotherapy)
Experimental: (§1) Minimum growth inhibitory concentrations (mcg/ml) of caprazene-1′″-amide derivatives of the formula (II) against some of microorganisms were measured on an agar culture medium by a serial dilution method according to the standard method as provided by Japanese Society of Chemotherapy. For the cultivation of Mycobacterium smegmatis (one of […]), however, there was used an agar culture medium with the addition of 1% glycerine (the same applies to in the following tests).
(§2) Minimum growth inhibitory concentrations (mcg/ml) of some of the caprazene-1′″-ester derivative of the formula (III) against some of microorganisms were measured on an agar culture medium by a serial dilution method according to the standard method as provided by Japanese Society of Chemotherapy.
(§3) Minimum growth inhibitory concentrations (mcg/ml) of some of the caprazol-1′″-amide derivative of the formula (V) against a variety of microorganisms were measured on an agar medium by a serial dilution method according to the standard method as provided by Japanese Society of Chemotherapy.
as §3, with “caprazol-1′″-amide-3′″-ester” for “caprazol-1′″-amide”, “(VI)” for “(V)”
as §3, with “caprazol-3′″-ester derivative or caprazol-1′″-ester-3′″-ester” for “caprazol-1′″-amide”, “(VII)” for “(V)”
(§4) Minimum growth inhibitory concentrations (mcg/ml) of some of the derivative of the formula (VIII) against a variety of microorganisms were measured on an agar medium by a serial dilution method according to the standard method as provided by Japanese Society of Chemotherapy.

[1] = test system: Staphylococcus aureus FDA209P; test: as above
Experimental: as §1, §2, §3
as §4, with “of the caprazol-1′″-amide-3′″-ester derivative of” for “of the derivative of”, “the formula (VI) against a” for “the formula (VIII) against a”
as §4, with “of the caprazol-3′″-ester derivative or caprazol-1′″-ester-3′″-ester derivative of” for “of the derivative of”, “the formula (VII) against a” for “the formula (VIII) against a”
as §4

[2] = test system: Mycobacterium smegmatis ATCC607; test: Minimum growth inhibitory concentration on agar culture medium with 1% glycerine by serial dilution method; details: agar culture medium with the addition of 1% glycerine
Experimental: as §1, §2, §3
as §4, with “of the caprazol-1′″-amide-3′″-ester derivative of” for “of the derivative of”, “the formula (VI) against a” for “the formula (VIII) against a”
as §4, with “of the caprazol-3′″-ester derivative or caprazol-1′″-ester-3′″-ester derivative of” for “of the derivative of”, “the formula (VII) against a” for “the formula (VIII) against a”

CCCCCCCCCCCCCCNC(=O)C1=CCN(C)C(C(OC2OC(CN)C(O)C2O)C2OC(n3ccc(=O)[nH]c3=O)C(O)C2O)C(=O)N1C (stereo not drawn) [Compound II-I]
Minimum growth inhibitory concentration (mcg/ml) against bacteria Micrococcus luteus FDA16 (Micrococcus luteus FDA16): 0.78 µg/mL
Minimum growth inhibitory concentration (mcg/ml) against bacteria Staphylococcus aureus FDA209P [1]: 3.13 µg/mL
Minimum growth inhibitory concentration (mcg/ml) against bacteria Mycobacterium smegmatis ATCC607 [2]: 0.78 µg/mL

CCCCCCCCCCCCCCCNC(=O)C1=CCN(C)C(C(OC2OC(CNC(=O)OC(C)(C)C)C(O)C2O)C2OC(n3ccc(=O)[nH]c3=O)C(O)C2O)C(=O)N1C (stereo not drawn) [Compound II-J-N-Boc]
Minimum growth inhibitory concentration (mcg/ml) against bacteria Micrococcus luteus FDA16 (Micrococcus luteus FDA16): 12.5 µg/mL
Minimum growth inhibitory concentration (mcg/ml) against bacteria Staphylococcus aureus FDA209P [1]: 12.5 µg/mL
Minimum growth inhibitory concentration (mcg/ml) against bacteria Mycobacterium smegmatis ATCC607 [2]: 25 µg/mL

CCCCCCCCCCCCCCCNC(=O)C1=CCN(C)C(C(OC2OC(CN)C(O)C2O)C2OC(n3ccc(=O)[nH]c3=O)C(O)C2O)C(=O)N1C (stereo not drawn) [Compound II-J]
Minimum growth inhibitory concentration (mcg/ml) against bacteria Micrococcus luteus FDA16 (Micrococcus luteus FDA16): 0.78 µg/mL
Minimum growth inhibitory concentration (mcg/ml) against bacteria Staphylococcus aureus FDA209P [1]: 1.56 µg/mL
Minimum growth inhibitory concentration (mcg/ml) against bacteria Mycobacterium smegmatis ATCC607 [2]: 1.56 µg/mL

CCCCCCCCCCCCCCCCNC(=O)C1=CCN(C)C(C(OC2OC(CN)C(O)C2O)C2OC(n3ccc(=O)[nH]c3=O)C(O)C2O)C(=O)N1C (stereo not drawn) [Compound II-K]
Minimum growth inhibitory concentration (mcg/ml) against bacteria Micrococcus luteus FDA16 (Micrococcus luteus FDA16): 0.78 µg/mL
Minimum growth inhibitory concentration (mcg/ml) against bacteria Staphylococcus aureus FDA209P [1]: 3.13 µg/mL
Minimum growth inhibitory concentration (mcg/ml) against bacteria Mycobacterium smegmatis ATCC607 [2]: 3.13 µg/mL

CCCCCCCCCCCCCCCCCNC(=O)C1=CCN(C)C(C(OC2OC(CN)C(O)C2O)C2OC(n3ccc(=O)[nH]c3=O)C(O)C2O)C(=O)N1C (stereo not drawn) [Compound II-L]
Minimum growth inhibitory concentration (mcg/ml) against bacteria Micrococcus luteus FDA16 (Micrococcus luteus FDA16): 1.56 µg/mL
Minimum growth inhibitory concentration (mcg/ml) against bacteria Staphylococcus aureus FDA209P [1]: 1.56 µg/mL
Minimum growth inhibitory concentration (mcg/ml) against bacteria Mycobacterium smegmatis ATCC607 [2]: 3.13 µg/mL

CCCCCCCCCCCCCCCCCCNC(=O)C1=CCN(C)C(C(OC2OC(CN)C(O)C2O)C2OC(n3ccc(=O)[nH]c3=O)C(O)C2O)C(=O)N1C (stereo not drawn) [Compound II-M]
Minimum growth inhibitory concentration (mcg/ml) against bacteria Micrococcus luteus FDA16 (Micrococcus luteus FDA16): 0.78 µg/mL
Minimum growth inhibitory concentration (mcg/ml) against bacteria Staphylococcus aureus FDA209P [1]: 6.25 µg/mL
Minimum growth inhibitory concentration (mcg/ml) against bacteria Mycobacterium smegmatis ATCC607 [2]: 3.13 µg/mL

CCCCCCCCCCCCCCCCCCCNC(=O)C1=CCN(C)C(C(OC2OC(CN)C(O)C2O)C2OC(n3ccc(=O)[nH]c3=O)C(O)C2O)C(=O)N1C (stereo not drawn) [Compound II-N]
Minimum growth inhibitory concentration (mcg/ml) against bacteria Micrococcus luteus FDA16 (Micrococcus luteus FDA16): 0.78 µg/mL
Minimum growth inhibitory concentration (mcg/ml) against bacteria Staphylococcus aureus FDA209P [1]: 6.25 µg/mL
Minimum growth inhibitory concentration (mcg/ml) against bacteria Mycobacterium smegmatis ATCC607 [2]: 50 µg/mL

CCCCCCCCCCCCCCCCCCCCNC(=O)C1=CCN(C)C(C(OC2OC(CN)C(O)C2O)C2OC(n3ccc(=O)[nH]c3=O)C(O)C2O)C(=O)N1C (stereo not drawn) [Compound II-O]
Minimum growth inhibitory concentration (mcg/ml) against bacteria Micrococcus luteus FDA16 (Micrococcus luteus FDA16): 3.13 µg/mL
Minimum growth inhibitory concentration (mcg/ml) against bacteria Staphylococcus aureus FDA209P [1]: 3.13 µg/mL
Minimum growth inhibitory concentration (mcg/ml) against bacteria Mycobacterium smegmatis ATCC607 [2]: 25 µg/mL

CCCCCCCCCCCCCCCCCCCCCNC(=O)C1=CCN(C)C(C(OC2OC(CN)C(O)C2O)C2OC(n3ccc(=O)[nH]c3=O)C(O)C2O)C(=O)N1C (stereo not drawn) [Compound II-P]
Minimum growth inhibitory concentration (mcg/ml) against bacteria Micrococcus luteus FDA16 (Micrococcus luteus FDA16): 3.13 µg/mL
Minimum growth inhibitory concentration (mcg/ml) against bacteria Staphylococcus aureus FDA209P [1]: 6.25 µg/mL
Minimum growth inhibitory concentration (mcg/ml) against bacteria Mycobacterium smegmatis ATCC607 [2]: 50 µg/mL

CN1C(=O)C(C(OC2OC(CN)C(O)C2O)C2OC(n3ccc(=O)[nH]c3=O)C(O)C2O)N(C)CC=C1C(=O)NC1CCCCCCCCCCC1 (stereo not drawn) [Compound II-Q]
Minimum growth inhibitory concentration (mcg/ml) against bacteria Micrococcus luteus FDA16 (Micrococcus luteus FDA16): 0.20 µg/mL
Minimum growth inhibitory concentration (mcg/ml) against bacteria Staphylococcus aureus FDA209P [1]: 100 µg/mL
Minimum growth inhibitory concentration (mcg/ml) against bacteria Mycobacterium smegmatis ATCC607 [2]: 3.13 µg/mL

CCCCCCCCC=CCCCCCCCCNC(=O)C1=CCN(C)C(C(OC2OC(CN)C(O)C2O)C2OC(n3ccc(=O)[nH]c3=O)C(O)C2O)C(=O)N1C (stereo not drawn) [Compound II-R]
Minimum growth inhibitory concentration (mcg/ml) against bacteria Micrococcus luteus FDA16 (Micrococcus luteus FDA16): 1.56 µg/mL
Minimum growth inhibitory concentration (mcg/ml) against bacteria Staphylococcus aureus FDA209P [1]: 1.56 µg/mL
Minimum growth inhibitory concentration (mcg/ml) against bacteria Mycobacterium smegmatis ATCC607 [2]: 1.56 µg/mL

CCCCCCCCCCOC(=O)C1=CCN(C)C(C(OC2OC(CN)C(O)C2O)C2OC(n3ccc(=O)[nH]c3=O)C(O)C2O)C(=O)N1C (stereo not drawn) [Compound III-AA]
Minimum growth inhibitory concentration (mcg/ml) against bacteria Micrococcus luteus FDA16 (Micrococcus luteus FDA16): 1.56 µg/mL
Minimum growth inhibitory concentration (mcg/ml) against bacteria Staphylococcus aureus FDA209P [1]: 12.5 µg/mL
Minimum growth inhibitory concentration (mcg/ml) against bacteria Mycobacterium smegmatis ATCC607 [2]: 12.5 µg/mL

CCCCCCCCCCCCCOC(=O)C1=CCN(C)C(C(OC2OC(CN)C(O)C2O)C2OC(n3ccc(=O)[nH]c3=O)C(O)C2O)C(=O)N1C (stereo not drawn) [Compound III-BB]
Minimum growth inhibitory concentration (mcg/ml) against bacteria Micrococcus luteus FDA16 (Micrococcus luteus FDA16): 3.13 µg/mL
Minimum growth inhibitory concentration (mcg/ml) against bacteria Staphylococcus aureus FDA209P [1]: 3.13 µg/mL
Minimum growth inhibitory concentration (mcg/ml) against bacteria Mycobacterium smegmatis ATCC607 [2]: 12.5 µg/mL

CCCCCCCCCCCCCCCCCCOC(=O)C1=CCN(C)C(C(OC2OC(CN)C(O)C2O)C2OC(n3ccc(=O)[nH]c3=O)C(O)C2O)C(=O)N1C (stereo not drawn) [Compound III-CC]
Minimum growth inhibitory concentration (mcg/ml) against bacteria Micrococcus luteus FDA16 (Micrococcus luteus FDA16): 6.25 µg/mL
Minimum growth inhibitory concentration (mcg/ml) against bacteria Staphylococcus aureus FDA209P [1]: 12.5 µg/mL
Minimum growth inhibitory concentration (mcg/ml) against bacteria Mycobacterium smegmatis ATCC607 [2]: >100 µg/mL

CCCCCCCCCC=CCOC(=O)C1=CCN(C)C(C(OC2OC(CN)C(O)C2O)C2OC(n3ccc(=O)[nH]c3=O)C(O)C2O)C(=O)N1C (stereo not drawn) [Compound III-EE]
Minimum growth inhibitory concentration (mcg/ml) against bacteria Micrococcus luteus FDA16 (Micrococcus luteus FDA16): 1.56 µg/mL
Minimum growth inhibitory concentration (mcg/ml) against bacteria Staphylococcus aureus FDA209P [1]: 6.25 µg/mL
Minimum growth inhibitory concentration (mcg/ml) against bacteria Mycobacterium smegmatis ATCC607 [2]: 12.5 µg/mL

CCCCCCC#CCCOC(=O)C1=CCN(C)C(C(OC2OC(CN)C(O)C2O)C2OC(n3ccc(=O)[nH]c3=O)C(O)C2O)C(=O)N1C (stereo not drawn) [Compound III-GG]
Minimum growth inhibitory concentration (mcg/ml) against bacteria Micrococcus luteus FDA16 (Micrococcus luteus FDA16): 6.25 µg/mL
Minimum growth inhibitory concentration (mcg/ml) against bacteria Staphylococcus aureus FDA209P [1]: 50 µg/mL
Minimum growth inhibitory concentration (mcg/ml) against bacteria Mycobacterium smegmatis ATCC607 [2]: 25 µg/mL

CCCCCCNC(=O)C1C(O)CN(C)C(C(OC2OC(CN)C(O)C2O)C2OC(n3ccc(=O)[nH]c3=O)C(O)C2O)C(=O)N1C (stereo not drawn) [Compound V-A]
Minimum growth inhibitory concentration (mcg/ml) against bacteria Micrococcus luteus FDA16 (Micrococcus luteus FDA16): 50 µg/mL
Minimum growth inhibitory concentration (mcg/ml) against bacteria Staphylococcus aureus FDA209P [1]: 50 µg/mL
Minimum growth inhibitory concentration (mcg/ml) against bacteria Mycobacterium smegmatis ATCC607 [2]: 12.5 µg/mL

CCCCCCCCNC(=O)C1C(O)CN(C)C(C(OC2OC(CN)C(O)C2O)C2OC(n3ccc(=O)[nH]c3=O)C(O)C2O)C(=O)N1C (stereo not drawn) [Compound V-C]
Minimum growth inhibitory concentration (mcg/ml) against bacteria Micrococcus luteus FDA16 (Micrococcus luteus FDA16): 25 µg/mL
Minimum growth inhibitory concentration (mcg/ml) against bacteria Staphylococcus aureus FDA209P [1]: 25 µg/mL
Minimum growth inhibitory concentration (mcg/ml) against bacteria Mycobacterium smegmatis ATCC607 [2]: 6.25 µg/mL

CCCCCCCCCCNC(=O)C1C(O)CN(C)C(C(OC2OC(CN)C(O)C2O)C2OC(n3ccc(=O)[nH]c3=O)C(O)C2O)C(=O)N1C (stereo not drawn) [Compound V-E]
Minimum growth inhibitory concentration (mcg/ml) against bacteria Micrococcus luteus FDA16 (Micrococcus luteus FDA16): 25 µg/mL
Minimum growth inhibitory concentration (mcg/ml) against bacteria Staphylococcus aureus FDA209P [1]: 25 µg/mL
Minimum growth inhibitory concentration (mcg/ml) against bacteria Mycobacterium smegmatis ATCC607 [2]: 6.25 µg/mL

CCCCCCCCCCCNC(=O)C1C(O)CN(C)C(C(OC2OC(CN)C(O)C2O)C2OC(n3ccc(=O)[nH]c3=O)C(O)C2O)C(=O)N1C (stereo not drawn) [Compound V-F]
Minimum growth inhibitory concentration (mcg/ml) against bacteria Micrococcus luteus FDA16 (Micrococcus luteus FDA16): 25 µg/mL
Minimum growth inhibitory concentration (mcg/ml) against bacteria Staphylococcus aureus FDA209P [1]: 12.5 µg/mL
Minimum growth inhibitory concentration (mcg/ml) against bacteria Mycobacterium smegmatis ATCC607 [2]: 6.25 µg/mL

CCCCCCCCCCCCNC(=O)C1C(O)CN(C)C(C(OC2OC(CN)C(O)C2O)C2OC(n3ccc(=O)[nH]c3=O)C(O)C2O)C(=O)N1C (stereo not drawn) [Compound V-G, caprazol-1′″-dodecyl-amide derivative]
Minimum growth inhibitory concentration (mcg/ml) against bacteria Micrococcus luteus FDA16 (Micrococcus luteus FDA16): 25 µg/mL
Minimum growth inhibitory concentration (mcg/ml) against bacteria Staphylococcus aureus FDA209P [1]: 12.5 µg/mL
Minimum growth inhibitory concentration (mcg/ml) against bacteria Mycobacterium smegmatis ATCC607 [2]: 6.25 µg/mL

CCCCCCCCC=CCCCCCCCCNC(=O)C1C(O)CN(C)C(C(OC2OC(CN)C(O)C2O)C2OC(n3ccc(=O)[nH]c3=O)C(O)C2O)C(=O)N1C (stereo not drawn) [Compound V-R]
Minimum growth inhibitory concentration (mcg/ml) against bacteria Micrococcus luteus FDA16 (Micrococcus luteus FDA16): 25 µg/mL
Minimum growth inhibitory concentration (mcg/ml) against bacteria Staphylococcus aureus FDA209P [1]: 12.5 µg/mL
Minimum growth inhibitory concentration (mcg/ml) against bacteria Mycobacterium smegmatis ATCC607 [2]: 6.25 µg/mL

CCCCCCCCNC(=O)C1C(OC(=O)CCCCCCCC)CN(C)C(C(OC2OC(CN)C(O)C2O)C2OC(n3ccc(=O)[nH]c3=O)C(O)C2O)C(=O)N1C (stereo not drawn) [Compound VI-C]
Minimum growth inhibitory concentration (mcg/ml) against bacteria Micrococcus luteus FDA16 (Micrococcus luteus FDA16): 6.25 µg/mL
Minimum growth inhibitory concentration (mcg/ml) against bacteria Staphylococcus aureus FDA209P [1]: 12.5 µg/mL
Minimum growth inhibitory concentration (mcg/ml) against bacteria Mycobacterium smegmatis ATCC607 [2]: 6.25 µg/mL
